Reference: patent US7052714B1, “Ophthalmic adhesive preparations for percutaneous adsorption” (Senju Pharmaceutical Co., LTD, priority 1999, dated 2006)
Values joined by “and” are separate entries in the source; they are usually repeats but may differ in a detail not shown here. Equal entries are not always repeated. Where two headings read alike, the source gives them in different places.

Tests used:
[1] = male, Wistar/ST, rat, in vivo
Experimental: (§1) 0.5-ml blood sampling was performed over time through a sampling port of the cannula placed on the occipital region of the rat's head. For measurement of transfer of the drug to the ocular tissues, rats were euthanized with an excess amount of sodium pentobarbital solution and the ocular tissues were removed. The tissues were pretreated, extracted and measured to determine the concentration of the drug by HPLC.
(§2) Determination of the concentration of N-(4-fluorophenylsulfonyl)-L-valyl-L-leucinal in the samples was carried out by HPLC under the following conditions.

in vivo = details: male, Wistar/ST, rat
Experimental: as §1, §2

[2] = In vivo test-1: transfer of drugs from transdermal patches to the plasma and ocular tissues
Experimental: as §1, §2

[3] = In vivo test-2: SJA6017 transdermal patch, transfer to the plasma and ocular tissues; parameters: species or system Wistar/ST rats; details: transdermal application, 12 hours after application
Description: A study of SJA6017-containing transdermal patch according to the formula below was made for examining transfer of SJA6017 from the patch to the plasma and to the ocular tissues, and comparison of the results with those from intravenous injection was also made.
The hair was removed under anesthesia with a clipper and a shaver carefully to avoid injuring the skin. A SJA6017 transdermal patch having a drug-containing layer according to the above formula with the size of 5.0×6.0 cm (30 cm^2) was applied to the animals (n=10) of the percutaneous administration group on the abdominal skin and secured in position with a supporting tape to prevent it from falling. After 12 hours of application, the animals were sacrificed and the blood was collected from the abdominal aorta, and the plasma separated. The eyes were excised at the same time. Each of the eyes was separated into the aqueous humor, the lens and the other tissues (consisting of the cornea, the sclera, the iris-ciliary body, the vitreous body and the retina-choroid), and corresponding tissues separated from the 20 eyes were combined, respectively, to make a sample.

[4] = In vivo test-2: intravenous administration experiment; parameters: species or system Wistar rats; details: intravenous injection 2 mg/kg, rat, 15 minutes after injection
Experimental: An intravenous administration experiment was carried out using 5 male Wistar rats (body weight approx. 600 g: 592±34 g) by administering 2 mg/kg SJA6017 through the tail vein of the animals under pentobarbital anesthesia. For the administration, a solution was used containing 10 mg SJA6017 dissolved in 10 ml mixture of ethanol/PEG400/water (1/2/1). Fifteen minutes after the intravenous administration, the animals were sacrificed, the blood was collected through the abdominal aorta, and the plasma separated. The eyes were excised at the same time. Each of the eyes was separated into the aqueous humor, the lens and the other tissues (consisting of the cornea, the sclera, the iris-ciliary body, the vitreous body and the retina-choroid), and corresponding tissues separated from the 10 eyes were combined, respectively, to make a sample.

[5] = male, Wistar/ST, rat, plasma, other: transdermal patch applied on the abdominal skin, 10 cm^2
[6] = male, Wistar/ST, rat, plasma, other: transdermal patch applied on the abdominal skin, 10 cm^2 patch

Structure (SMILES): C[C@]12C=CC(=O)C=C1CC[C@@H]1[C@@H]2[C@@H](O)C[C@@]2(C)[C@H]1CC[C@]2(O)C(=O)CO [Prednisolone, prednisolone]
- time after application at which plasma concentration reached the peak [1]: 8 h
- concentration at 0 h (in vivo): 0 ng/mL
- concentration at 2 h (in vivo): 220 ng/mL
- concentration at 4 h (in vivo): 288 ng/mL
- concentration at 6 h (in vivo): 70 ng/g and 385 ng/mL
- concentration at 8 h (in vivo): 608 ng/mL
- concentration at 12 h (in vivo): 148 ng/mL
- concentration at 18 h (in vivo): 99 ng/mL
- concentration at 24 h (in vivo): 77 ng/mL

Structure (SMILES): CC(C)C[C@@H](C=O)NC(=O)[C@@H](NS(=O)(=O)c1ccc(F)cc1)C(C)C [SJA6017, N-(4-fluorophenylsulfonyl)-L-valyl-L-leucinal]
- time after application at which plasma concentration reached the peak ([2]; SJA6017 patch No. S4, 10 cm^2, rat): 12 h
- plasma concentration 24 hours after application relative to its peak ([2]; SJA6017 patch No. S4, 10 cm^2, rat, 24 hours): about 85%
- concentration at 8 h [2, 5]: 50 ng/mL
- concentration at 12 h [2, 5]: 114 ng/mL
- concentration at 18 h [2, 5]: 68 ng/mL
- concentration at 24 h [2, 5]: 98 ng/mL
- concentration at 0 h [2, 6]: 0 ng/mL
- concentration at 2 h [2, 6]: 30 ng/mL
- concentration at 4 h [2, 6]: 36 ng/mL
- concentration at 6 h [2, 6]: 58 ng/mL
- concentration at 12 h ([3]; male, Wistar/ST, eye (ocular tissues), other: transdermal patch applied on the abdominal skin, 30 cm^2 patch, 5 W/W% SJA6017 patch 30 cm^2, rat, read-out: Intraocular concentration): 7.2 ng/g
- concentration at 12 h ([3]; male, Wistar/ST, lens, other: transdermal patch applied on the abdominal skin, 30 cm^2 patch, SJA6017 patch 30 cm^2, rat, read-out: Intraocular concentration, itemized: Lens): 1.1 ng/g
- concentration at 12 h ([3]; male, Wistar/ST, other: transdermal patch applied on the abdominal skin, 30 cm^2 patch, SJA6017 patch 30 cm^2, rat, read-out: Intraocular concentration, itemized: Other ocular tissues (cornea, sclera, iris-ciliary body, vitreous body, retina-choroid)): 13.8 ng/g
- concentration at 12 h ([3]; male, Wistar/ST, plasma, other: transdermal patch applied on the abdominal skin, 30 cm^2 patch, 5 W/W% SJA6017 patch 30 cm^2, rat, read-out: Plasma concentration): 47 ± 12 ng/mL
- Kp at 12 h ([3]; male, Wistar/ST, rat, eyeball/plasma, other: transdermal patch applied on the abdominal skin, 30 cm^2 patch, SJA6017 patch 30 cm^2, rat, read-out: Eyeball/plasma ratio): ~0.16
- Intraocular concentration, itemized: Aqueous humor ([3]; SJA6017 patch 30 cm^2, rat): not detected
- Lens: ratio to plasma concentration (100%) ([3]; SJA6017 patch 30 cm^2, rat): (2.3%)*^2
- Other ocular tissues: ratio to plasma concentration (100%) ([3]; SJA6017 patch 30 cm^2, rat): (29.6%)*^2
- Intraocular concentration, itemized: Aqueous humor [4]: not detected
- Intraocular concentration, itemized: Lens [4]: not detected
- Other ocular tissues: ratio to plasma concentration (100%) [4]: (27.8%)*^2
- Eyeball/plasma ratio ([4]; 2 mg/kg): 13%
- concentration at 15 min ([4]; male, Wistar, eye (ocular tissues), read-out: Intraocular concentration): 16 ng/g
- Kp at 15 min ([4]; male, Wistar, eyeball/plasma, read-out: Eyeball/plasma ratio): 0.13
- concentration at 15 min ([4]; male, Wistar, plasma, read-out: Plasma concentration): 120 ± 16 ng/mL
- concentration at 15 min ([4]; male, Wistar, read-out: Intraocular concentration, itemized: Other ocular tissues (cornea, sclera, iris-ciliary body, vitreous body, retina-choroid)): 33.4 ng/g
